In US7465814B2, “Sulfonate compound and fluorescent probe using the same” (priority 2003, dated 2008):

What was measured:
[1] = Responses to the compounds listed in Table 1; assay type: biochemical; conditions: same conditions as Example 1
Experimental: (§1) Moreover, in other conditions than those of the above-described tests, reactivity of all of the compounds 1a to 1d with H2O2, other various kinds of nucleophilic agents, reducing agents and the like also was tested, respectively. More specifically, fluorescent responses of 1a to 1d with respect to a XO-HPX system, a XO-HPX-SOD system, H2O2, ascorbic acid, 1,4-hydroquinone, propylamine, diethylamine, glucose, esterase, a cytochrome P450 reductase+NADPH system, and a diaphorase+NADH system were measured, respectively. Operational processes thereof will be described below. Firstly, 1a to 1d and the above-described reagents were dissolved in HEPES of 10 mM having a pH of 7.4 so as to prepare solutions, respectively. Next, a 96 wellmicroplate was provided, where any of the solutions of 1a to 1d (25 μM, 170 μL) was poured into each of the wells, and furthermore, 30 μL of a blank solution or 30 μL of the solution of the reagent to be reacted therewith was added thereto. Final concentrations of the solutions in the wells were adjusted so that concentrations of the solutions of 1a to 1d respectively could be 21.3 μM, that of XO could be 13.1 mU/mL, those of HPX, H2O2, ascorbic acid, 1,4-hydroquinone, propylamine, diethylamine, glucose, NADPH and NADH respectively could be 50 μM, that of cytochrome P450 reductase could be 68 mU/mL, that of diaphorase could be 65 mU/mL, and that of esterase could be 0.5 U/mL, respectively. Then, after they reacted in the wells at 37° C. for 10 minutes, fluorescent responses were measured respectively. Fluorescence intensity measurement was conducted by using an ETC-272 Peltier thermostatted single cell holder (trade name) manufactured by JASCO Corporation or a SpectraMax GeminiEM fluorescence plate reader (trade name) manufactured by Molecular Devices Corporation provided with a FP-750 spectrofluorometer (trade name) manufactured by JASCO Corporation, and by setting excitation wavelengths and emission wavelengths so that those of 1a, 1b and 1c respectively could be 485 nm and 515 nm, and those of 1d respectively could be 511 nm and 540 nm.
(§2) The reactivity of each of the compounds 1d, 5a, 6a, 7 and 8a with respect to superoxide and glutathione (GSH) that is a kind of thiol was tested under the same conditions as those of [1-3. Superoxide-selectivity (2)] in Example 1. […] A vertical axis thereof denotes a fluorescence intensity, which is represented in % of control.

[2] = system: acetyl cholinesterase (AChE); conditions: range from 0.1 μU to 0.5 μU, 37° C., 10 minutes, acetyl thiocholine substrate
Experimental: Firstly, an EtOH solution of the compound 8a (10 mM) was prepared, and it further was diluted by 500-fold with a HEPES buffer solution having a pH of 7.4, thereby preparing a probe solution containing the compound 8a (20 μM). Whereas, a solution (1 mM) was prepared by dissolving commercially available acetyl thiocholine in a HEPES buffer solution having a pH of 7.4. Moreover, acetyl cholinesterase (AChE) solutions (solutions obtained by dissolving acetyl cholinesterase in a HEPES buffer solution having a pH of 7.4) with various concentrations (activity levels) were prepared.
Next, 200 μL of the probe solution, 10 μL of the acetyl thiocholine solution and 10 μL of each of the acetyl cholinesterase (AChE) solutions with various concentrations (activity levels) were added into each well of a 96-wellmicroplate, and underwent an enzyme reaction at 37° C. for 10 minutes. Immediately after the reaction, a fluorescence response of each well was measured at λex (excitation wavelength) of 483 nm and λem (emission wavelength) of 515 nm.

[3] = Fluorescence response to cysteine, quantitativity (FIG. 5); assay type: biochemical; conditions: for detection limit of cysteine: probe 200 μL, HEPES pH 7.4, 37° C., 10 minutes; for inclination of calibration curve, cysteine: up to 1000 pmol
Experimental: (§3) Quantitativity and the like of each of the compounds 6a and 8a with respect to a mercapto compound were evaluated, by using glutathione (GSH) and cysteine that are kinds of thiol. More specifically, an EtOH solution of the compound 6a (10 mM) was prepared, and it further was diluted by 500-fold with a HEPES buffer solution having a pH of 7.4, thereby preparing a probe solution containing the compound 6a. Next, 200 μL of this probe solution and 10 μL of each of solutions of glutathione or cysteine (dissolved in a HEPES buffer solution having a pH of 7.4) with various concentrations were added into each well of a 96-wellmicroplate, and were allowed to stand still at 37° C. for 10 minutes so as to undergo a reaction. Moreover, a probe solution containing 8a was prepared in the same manner as the preparation of the solution of the compound 6a except using 8a instead of 6a, and this probe solution also was allowed to react with a thiol solution in the same manner as the reaction of the probe solution containing 6a. Then, a fluorescence response of each well was measured after the reaction. The measurement of 6a was conducted at λex=383 nm and λem=500 nm, and the measurement of 8a was conducted at λex=483 nm and λem=515 nm. Herein, λex denotes an excitation wavelength, and λem denotes an emission wavelength.
(§4) FIG. 5A is a graph showing the measurement result of 6a, and FIG. 5B is a graph showing the measurement result of 8a.

[4] = Fluorescence response to glutathione, quantitativity (FIG. 5); assay type: biochemical; conditions: for detection limit of GSH: probe 200 μL, HEPES pH 7.4, 37° C., 10 minutes; for inclination of calibration curve, GSH: up to 1000 pmol
Experimental: as §3, §4

[5] = Fluorescence response to thiophosphonate group (FIG. 8); assay type: biochemical
From the text: Moreover, a capability of the sulfonate compound of the present invention as a fluorescent probe for mercapto compounds other than thiol (a compound in which a —SH group is bonded to a carbon atom) was examined. […]

[6] = system: thiophosphorylated protein; assay: Fluorescence response to thiophosphorylated protein; assay type: biochemical
[7] = Reaction with other nucleophilic agents instead of thiol; assay type: biochemical; conditions: same conditions as the thiol test
Experimental: Quantitativity and the like of each of the compounds 6a and 8a with respect to a mercapto compound were evaluated, by using glutathione (GSH) and cysteine that are kinds of thiol. […] Moreover, a probe solution containing 8a was prepared in the same manner as the preparation of the solution of the compound 6a except using 8a instead of 6a, and this probe solution also was allowed to react with a thiol solution in the same manner as the reaction of the probe solution containing 6a. Then, a fluorescence response of each well was measured after the reaction. The measurement of 6a was conducted at λex=383 nm and λem=500 nm, and the measurement of 8a was conducted at λex=483 nm and λem=515 nm. Herein, λex denotes an excitation wavelength, and λem denotes an emission wavelength.

[8] = Reactivity with superoxide and glutathione (FIG. 4); assay type: biochemical; conditions: same conditions as 1-3 Superoxide-selectivity (2)
Experimental: as §1, §2

[9] = Capability as superoxide-detecting fluorescent probe (reactivity with superoxide); assay type: biochemical; conditions: tested similarly to the compound 1d
Experimental: Then, by mainly using the compound 1d as a testing compound, the capability thereof as a superoxide-selective fluorescent probe was evaluated, and moreover, a test in a cell system also was conducted. These tests will be described below.
Thus, it is thought that each compound synthesized from a combination of: a phenolic colorant; and a 2,4-dinitrobenzenesulfonyl group, a 4-trifluoromethyl-2-nitrobenzenesulfonyl group or a 4-nitrobenzenesulfonyl group can be used as a superoxide-detecting fluorescent probe similarly. An example of the usage thereof will be shown in Scheme 8 below. Furthermore, it can be expected that a compound for a fluorescent probe having characteristics that are suitable for its application purpose can be designed and developed freely, by designing the compound of the present invention freely within the limitation defined by the general formula (I) and using the fluorescence mechanism developed by the inventors of the present invention, without being limited to the above-described combinations. Examples of the application purpose of the compound of the present invention are varied, including an application to a faintly coloring technique using superoxide.

O=C(O)c1ccccc1-c1c2ccc(=O)cc-2oc2cc(OS(=O)(=O)c3ccc([N+](=O)[O-])cc3[N+](=O)[O-])ccc12 [Compound 8a]
response with respect to each of the compounds listed in Table 1 [1]: almost no response
inclination, AChE activity versus fluorescence response [2]: 28.8 au/μU
detection limit of cysteine [3]: 1 pmol
inclination of calibration curve, cysteine [3]: 4.82 au/pmol
detection limit of GSH [4]: 2 pmol
inclination of calibration curve, GSH [4]: 4.25 au/pmol
detection limit of γ-S-ATP ([5]; probe 20 μM 200 μL, imidazole buffer pH 7.4, 37° C., 180 minutes): 5 pmol
fluorescence responses to thiophosphorylated protein with different introduction degrees of the thiophosphonate group [6]: fluorescence responses corresponding to the respective introduction degrees were obtained
fluorescence with other nucleophilic agent instead of thiol [7]: no fluorescence at all
selectivity (specificity), superoxide versus glutathione, FIG. 4 [8]: excellent mercapto compound-selectivity

O=c1cc(C(F)(F)F)c2ccc(OS(=O)(=O)c3ccc([N+](=O)[O-])cc3[N+](=O)[O-])cc2o1 [Compound 6a]
response with respect to each of the compounds listed in Table 1 [1]: almost no response
detection limit of cysteine [3]: 7 pmol
inclination of calibration curve, cysteine [3]: 0.66 au/pmol
detection limit of GSH [4]: 7 pmol
inclination of calibration curve, GSH [4]: 0.37 au/pmol
response to thiol group in thiophosphonate group ([5]; γ-S-ATP and adenosine monothiophosphate (S-AMP)): responded to a thiol group in a so-called thiophosphonate group
deprotection by superoxide into the corresponding fluorochrome [9]: deprotected by superoxide
fluorescence with other nucleophilic agent instead of thiol [7]: no fluorescence at all
selectivity (specificity), superoxide versus glutathione, FIG. 4 [8]: excellent mercapto compound-selectivity
